The conditions of data set [1]: cited from earlier work.
Another data set addresses Human KOR (Homo sapiens (Human), UniProt P41145). The data set is described as follows: Opioid receptor affinity, Kappa (KOR), NIMH PDSP. Type of data set: binding. As to conditions: human KOR expressed in CHO cells. The procedure:
(§1) The compounds were tested for activity vs. opioid receptor subtypes Kappa (KOR), Delta (DOR) and Mu (MOR) at an initial concentration of 10 μM each, through the NIMH Psychoactive Drug Screening Program (PDSP), operated by Dr. Bryan Roth and his colleagues in the Department of Pharmacology at the University of North Carolina (Chapel Hill, N.C.) through an agreement with the National Institute of Mental Health (NIMH). Human KOR, DOR and MOR were expressed in CHO cells for each assay.

The target in a further data set is Human DOR (Homo sapiens (Human), UniProt P41143). As to the kind of experiment: Opioid receptor affinity, Delta (DOR), NIMH PDSP. Type of data set: binding. As to conditions: read-out: DOR % inh. at 10 uM. Here is the method: as §1
The next data set deals with Human MOR (Homo sapiens (Human), UniProt P35372). The data set is described as follows: Opioid receptor affinity, Mu (MOR), NIMH PDSP. Type of data set: binding. As to conditions: read-out: MOR % inh. at 10 uM. The procedure:
as §1

Sequence of Human DOR (P41143 whole entry): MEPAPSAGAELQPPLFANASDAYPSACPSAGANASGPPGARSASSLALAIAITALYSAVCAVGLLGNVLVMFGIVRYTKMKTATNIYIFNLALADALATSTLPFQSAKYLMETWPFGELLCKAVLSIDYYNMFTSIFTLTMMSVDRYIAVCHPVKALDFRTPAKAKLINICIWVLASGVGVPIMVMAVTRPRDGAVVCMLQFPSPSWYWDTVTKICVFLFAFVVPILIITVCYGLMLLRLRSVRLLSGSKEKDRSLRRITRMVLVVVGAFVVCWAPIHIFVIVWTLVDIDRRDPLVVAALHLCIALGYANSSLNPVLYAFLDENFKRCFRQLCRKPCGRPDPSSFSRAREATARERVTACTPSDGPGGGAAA
Sequence of Human MOR (P35372 whole entry): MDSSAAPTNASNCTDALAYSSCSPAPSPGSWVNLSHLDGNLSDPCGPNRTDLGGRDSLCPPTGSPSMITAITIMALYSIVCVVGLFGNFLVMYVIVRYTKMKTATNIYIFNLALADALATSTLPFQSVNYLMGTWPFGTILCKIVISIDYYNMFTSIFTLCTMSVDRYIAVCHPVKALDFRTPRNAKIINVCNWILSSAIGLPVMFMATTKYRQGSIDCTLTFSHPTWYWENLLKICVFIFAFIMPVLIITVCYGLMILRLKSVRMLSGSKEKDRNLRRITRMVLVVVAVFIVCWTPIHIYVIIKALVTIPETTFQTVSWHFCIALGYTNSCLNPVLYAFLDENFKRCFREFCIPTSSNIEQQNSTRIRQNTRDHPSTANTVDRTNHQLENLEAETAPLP
Sequence of Human KOR (P41145 whole entry): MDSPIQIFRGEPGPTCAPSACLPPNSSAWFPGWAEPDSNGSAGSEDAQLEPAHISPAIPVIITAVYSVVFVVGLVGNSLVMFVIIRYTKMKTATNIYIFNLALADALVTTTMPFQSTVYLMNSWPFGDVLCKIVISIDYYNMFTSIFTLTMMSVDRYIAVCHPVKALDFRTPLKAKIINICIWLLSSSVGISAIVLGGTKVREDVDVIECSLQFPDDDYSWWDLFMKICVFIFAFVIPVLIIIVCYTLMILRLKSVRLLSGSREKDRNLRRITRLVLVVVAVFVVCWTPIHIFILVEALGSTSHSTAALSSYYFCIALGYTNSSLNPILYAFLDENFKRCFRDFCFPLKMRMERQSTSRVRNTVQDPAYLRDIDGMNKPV

Regarding `CC(C)C[C@@H](NC(=O)[C@@H](Cc1ccccc1)NC(=O)[C@H](N)Cc1ccccc1)C(=O)N[C@H](CCCCN)C(=O)N1CCC(N)(C(=O)O)CC1` [CR845], the “dysphoric behavior or hallucinations” value in data set [1] (Phase II trials in the U.S.) is reported as “has not displayed dysphoric behavior or hallucinations”. Further, the “incidence of nausea and vomiting” value in data set [1] (post-operative patients) is “reduced incidence of nausea and vomiting”.
In general, Ki refers to a measure of affinity in units of concentration, obtained from inhibition or displacement. Low readings indicate higher affinity, high ones lower affinity. `CN(C)CCCC1(c2ccc(F)cc2)OCc2cc(C(=N)NCc3ccccc3)ccc21` (stereo not shown) [Example 4, N-benzyl-1-[3-(dimethylamino)propyl]-1-(4-fluorophenyl)-1,3-dihydro-2-benzofuran-5-carboximidamide] gave a Ki at Human KOR of 30 nM. Also, the inhibition at 10 µM stood at 10% at Human DOR and 39% on Human MOR.
The corresponding values for `CN(C)CCCC1(c2ccc(F)cc2)OCc2cc(C(=N)N3CCCC3)ccc21` (stereo not shown) [Example 6, 1-[1-[3-(dimethylamino)propyl]-1-(4-fluorophenyl)-1,3-dihydro-2-benzofuran-5-yl]-1-(pyrrolidin-1-yl)-methanimine] are 249 nM, 6% and 8%.
For the molecule `CN(C)CCCC1(c2ccc(F)cc2)OCc2cc(-c3ncc[nH]3)ccc21` (stereo not shown) [Example 7], the inhibition at 10 µM on Human DOR stood at 24%; on Human MOR, 39%.
